The text below walks through data of patent US10654896B2, “FoxP3-binding peptides and uses thereof” (FUNDACIÓN PARA LA INVESTIGACIÓN MÉDICA APLICADA, priority 2016, dated 2020).

In general, amount remaining refers to what is left of the initial amount, in per cent. In general, inhibition refers to the change of the read-out against control, counted positive when it falls.

Where a SMILES comes first, the peptide text is derived from it. [ ]: non-standard residue; d: D form.

A short description of data set [1]: Human liver microsomal stability. The format is in vitro ADME. The following applies: human liver microsomes; for remaining at 20 min, 1 μM: read-out: % Remaining after 20 min; for remaining at 1 h, 1 μM: 60 min, read-out: % Remaining after 60 min; for half-life: peptide 1 μM, read-out: t1/2. Here is the method: (§1) The data collected were analyzed to calculate a half-life (t1/2, min) for tested peptides at a final concentration of 1 μM. Briefly, 5 μL of stock solution of tested peptide (10 mM) were diluted in 495 μL of 1:1 Methanol/Water (final concentration of 100 μM, 50% MeOH). Then, 50 μL of this intermediate solution were diluted in 450 μL of 100 mM potassium phosphate buffer to a concentration of 10 μM (working solution, 5% MeOH). The NADPH regenerating system contains β-Nicotinamide adenine dinucleotide phosphate (Sigma, Cat. # N0505), Isocitric acid (Sigma, Cat. #11252) and Isocitric dehydrogenase (Sigma, Cat. #12002) at a final concentration of 1 unit/mL at incubation.
(§2) Human liver microsomes were obtained from BD Gentest (Cat. #452117) and mouse liver microsomes from Xenotech (Cat. # M1000), to a final concentration of 0.7 mg protein/mL. A volume of 10 μL of peptide solution and 80 μL of microsome solution were added to a 96-well plate and incubated for 10 min at 37° C. The reaction was started by the addition of 10 μL of NADPH regenerating system and stopped by the addition of 300 μL of stop solution (ACN at 4° C., including 100 ng/mL Tolbutamide and 100 ng/mL of Labetalol as internal standard) at different incubation times (0, 5, 10, 20, 30 and 60 min). Concentrations of test compound were quantified by LC-MS/MS methodologies (Shimadzu LC 20-AD/API4000) using peak area ratio of analyte/internal standard and the percent loss of parent compound was calculated under each time point to determine the half-life.
Background: Liver microsomes are a subcellular fraction often used to study metabolism.

Data set [2] is described as follows: Mouse liver microsomal stability. Format: in vitro ADME. The following applies: mouse liver microsomes; for remaining at 20 min, 1 μM: read-out: % Remaining after 20 min; for remaining at 1 h, 1 μM: 60 min, read-out: % Remaining after 60 min; for half-life: peptide 1 μM. Here is the method:
as §1, §2

The target in data set [3] is T1, FOXP3/FOXP3 homodimerization (Homo sapiens, UniProt Q9BZS1).
T1 construct: made in house; host or cells: E. coli BL21 (DE3)
T1 sequence (Q9BZS1 1-431): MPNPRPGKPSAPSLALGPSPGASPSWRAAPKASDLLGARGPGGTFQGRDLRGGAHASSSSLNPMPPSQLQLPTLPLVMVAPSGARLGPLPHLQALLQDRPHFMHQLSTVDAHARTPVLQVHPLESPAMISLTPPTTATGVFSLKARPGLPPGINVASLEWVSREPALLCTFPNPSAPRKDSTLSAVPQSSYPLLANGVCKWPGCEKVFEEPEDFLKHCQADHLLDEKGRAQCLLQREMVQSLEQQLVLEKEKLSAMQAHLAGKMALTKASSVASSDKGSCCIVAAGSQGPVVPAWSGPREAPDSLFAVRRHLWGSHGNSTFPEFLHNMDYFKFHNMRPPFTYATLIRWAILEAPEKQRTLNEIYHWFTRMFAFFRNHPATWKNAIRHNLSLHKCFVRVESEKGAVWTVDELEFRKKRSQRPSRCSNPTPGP
As to the kind of experiment: FOXP3/FOXP3 homodimerization inhibition (Alphascreen). The format is biochemical. From the text:
Plasmid pET20b FOXP3-His was generated to produce the human FOXP3 tagged with 6 histidines at the C terminus of the protein. Briefly, plasmid pDEST15-FOXP3 (provided by Dr. Casal, Madrid, Spain) was used as template to amplify FOXP3 by PCR using the primers Upper FOXP3 Ndel catatgcccaaccccaggc (SEQ ID NO: 55) and Lower FOXP3 […] (SEQ ID NO: 56). The resulting fragment was subcloned in pET20b at Ndel and NotI sites. pET45b His-Runx1 was obtained by PCR of activated human CD4 T cells obtained from healthy volunteers (after the signature of an informed consent) using the primers Upper Runx1 atgcgtatccccgtagatg (SEQ ID NO: 57) and Lower Runx1 […] (SEQ ID NO: 58) and the fragment was cloned in pcDNA3.1. Then, pET45b and pcDNA3.1-Runx1 were digested with BamHI and NotI and ligated to obtain pET45b-Runx1. Plasmids were used to transform BL21 cells (DE3; Novagen, Schwalbach, Germany) for the expression of the recombinant protein. The transformed BL21 cells were grown in LB medium at 37° C. (1 liter of final culture medium) (with ampicilin 0.1 mg/ml). Once the OD of the culture was between 0.5 and 1.0, IPTG (0.4 mM, final concentration) was added. Bacteria were then cultured overnight in agitation and centrifuged for 10 min at 8000 rpm. Cell pellet was then resuspended in 4 ml Tris-HCl 0.1 M and frozen at −80° C. Cell pellet was then thawed and incubated with lisozyme (25 KU) and a protease inhibitor cocktail for 15 min at 30° C. before cell lysis induced with a French-press. The resultant pool was then centrifuged during 20 min at 11.000 rpm). The recombinant protein was purified from the soluble fraction of French-press cell extracts by affinity chromatography (Histrap, Pharmacia) following manufacturer's instructions and using an FPLC platform (AKTA, Pharmacia). Plasmid pDEST15-FOXP3 encoding the fusion protein GST-FOXP3 (GST fused to the isoform A from human FOXP3 gene), was transformed into BL21 cells for the expression of the recombinant protein. GST-FOXP3 protein was purified from the soluble fraction of cell extracts obtained, as described above, by affinity chromatography (GSTrap; Amersham, Piscataway, N.J.) using a fast protein liquid chromatography platform (AKTA; Amersham) following manufacturer's instructions. The eluted proteins were desalted using Hitrap desalting columns (Pharmacia) and analyzed by SDS-PAGE using Coomassie blue (Bio-Safe Coomassie reagent; Bio-Rad, Hercules, Calif.) and by Western blot.
It has been described that dimerization of FOXP3 is required for its function as a transcriptional regulator. Moreover, interaction between FOXP3 and the transcription factor Runx1, is crucially required for normal hematopoiesis including thymic T-cell development, but also for Treg suppressor activity (Reviewed in Lozano et al, Front Oncol. 2013, 3:294). Both activities are mediated by the intermediate region of Foxp3, which is the area of interaction between P60 and Foxp3. Thus, we studied the effect of P60 and their mutants on the FOXP3/Runx1 heterodimerization, as well as FOXP3/FOXP3 homodimerization by Alphascreen technology according to the manufacturer's instructions (Perkin Elmer, Benelux). AlphaScreen™ is a bead-based technology that is designed to measure the proximity of donor and acceptor beads conjugated to biomolecules of interest.
To measure FOXP3/FOXP3 homodimerization, recombinant Foxp3 was expressed with a Histine tag as disclosed in section (1) above, and captured by Nickel chelate Acceptor beads (Cat. AL108 Perkin Elmer) following manufacturer's instructions. The other version of recombinant FOXP3, expressing a GST tag (prepared as disclosed in section (1) above), was captured by Glutathione Donor beads (Perkin Elmer Cat. 6765300), following manufacturer's instructions. When the two proteins interacted together, the Donor and Acceptor beads come into proximity. Excitation of the Donor beads results in emission of light from the Acceptor beads. […]

Consider `CSCC[C@H](NC(=O)[C@H](C)NC(=O)[C@H](Cc1ccccc1)NC(=O)[C@H](Cc1ccccc1)NC(=O)[C@@H]1CCCN1C(=O)[C@H](Cc1c[nH]c2ccccc12)NC(=O)[C@H](CCSC)NC(=O)[C@H](CCCCN)NC(=O)[C@H](CCCNC(=N)N)NC(=O)[C@H](Cc1ccccc1)NC(=O)[C@H](CO)NC(=O)[C@H](CCC(N)=O)NC(=O)[C@H](Cc1ccccc1)NC(=O)[C@@H](CC(=O)O)NC(=O)[C@@H](N)CCCNC(=N)N)C(=O)O` [compound 3] (H-R[dD]FQSFRKMWPFFAM-OH), for which, in data set [1], the amount remaining at 20 min, 1 μM was 0%; the share remaining at 1 h, 1 μM stood at 0%; the half-life is below 2.5 min. For the same compound, in data set [2], the share remaining at 20 min, 1 μM was 0%; the share remaining at 1 h, 1 μM amounted to 0%; the half-life was below 2.5 min.
As for `CSCC[C@H](NC(=O)[C@H](C)NC(=O)[C@H](Cc1ccccc1)NC(=O)[C@H](Cc1ccccc1)NC(=O)[C@@H]1CCCN1C(=O)[C@H](Cc1c[nH]c2ccccc12)NC(=O)[C@H](CCSC)NC(=O)[C@H](CCCCN)NC(=O)[C@H](CCCNC(=N)N)NC(=O)[C@H](Cc1ccccc1)NC(=O)[C@H](CO)NC(=O)[C@H](CCC(N)=O)NC(=O)[C@H](Cc1ccccc1)NC(=O)[C@H](C)NC(=O)[C@H](N)CCCNC(=N)N)C(=O)O` [compound 46] (H-[dR]AFQSFRKMWPFFAM-OH; N-terminus and C-terminus assumed), in data set [3] (read-out: Dimerization inhibition % inhibition (20 μM)), the inhibition at 20 µM was determined as 90%.
As to `CSCC[C@@H]1NC(=O)[C@H](C)NC(=O)[C@H](Cc2ccccc2)NC(=O)[C@H](Cc2ccccc2)NC(=O)[C@@H]2CCCN2C(=O)[C@H](Cc2c[nH]c3ccccc23)NC(=O)[C@H](CCSC)NC(=O)[C@H](CCCCN)NC(=O)[C@H](CCCNC(=N)N)NC(=O)[C@H](Cc2ccccc2)NC(=O)[C@H](C)NC(=O)[C@H](CCC(N)=O)NC(=O)[C@H](Cc2ccccc2)NC(=O)[C@H](C)NC(=O)[C@H](CCCNC(=N)N)NC1=O` [compound 50] (cyclo(RAFQAFRKMWPFFAM)), in data set [1], the share remaining at 20 min, 1 μM came to 6.2%; the fraction remaining at 1 h, 1 μM came to 0%; the half-life came to 5.3 min. Besides, in data set [2], the fraction remaining at 20 min, 1 μM came to 12%; the share remaining at 1 h, 1 μM came out at 0%; the half-life came to 8 min.
With H-RDFQSFRKMWPFFAM-OH [compound 1], the inhibition at 100 µM in data set [3] (read-out: Dimerization inhibition % inhibition (100 μM)) was 59.7%.
